Experiments:
[1] = test system: bovine aortic vascular smooth muscle; assay: bFGF-induced proliferation of bovine aortic vascular smooth muscle; assay type: cell-based; conditions: 3 μM
Method: Experiments were also carried out with bovine aortic vascular smooth muscle with a more limited set of compounds.

[2] = test system: GM-CSF production by Human Airway Smooth Muscle Cells; assay: Interleukin-1α-mediated GM-CSF production by HASM cells (ELISA); assay type: cell-based; conditions: for HASM - GM-CSF: inhibition of interleukin-1α (1 ng/ml)-mediated GM-CSF production, concentration not given, * not defined
[3] = molecular target: T1, Estrogen Receptor (ER) (Rattus norvegicus, UniProt P06211); assay: Estrogen receptor binding assay, 3H-estradiol displacement from rat uterine cytosol; conditions: for displacement of ^3H-Estradiol, in words: concentrations up to 10 μM; for ER affinity (pIC50 ^3H-E2 displacement): rat uterine cytosol, 0.2 nM [3H]-E2, tested up to 10 μM; for IC50: read-out: ER-RLB pIC50 (converted)
T1 construct: using rat uterine cytosol as a source of ER; from tissue; host or cells: rat uterus, cytosol fraction (30000 x g supernatant)
T1 sequence (P06211 1-600): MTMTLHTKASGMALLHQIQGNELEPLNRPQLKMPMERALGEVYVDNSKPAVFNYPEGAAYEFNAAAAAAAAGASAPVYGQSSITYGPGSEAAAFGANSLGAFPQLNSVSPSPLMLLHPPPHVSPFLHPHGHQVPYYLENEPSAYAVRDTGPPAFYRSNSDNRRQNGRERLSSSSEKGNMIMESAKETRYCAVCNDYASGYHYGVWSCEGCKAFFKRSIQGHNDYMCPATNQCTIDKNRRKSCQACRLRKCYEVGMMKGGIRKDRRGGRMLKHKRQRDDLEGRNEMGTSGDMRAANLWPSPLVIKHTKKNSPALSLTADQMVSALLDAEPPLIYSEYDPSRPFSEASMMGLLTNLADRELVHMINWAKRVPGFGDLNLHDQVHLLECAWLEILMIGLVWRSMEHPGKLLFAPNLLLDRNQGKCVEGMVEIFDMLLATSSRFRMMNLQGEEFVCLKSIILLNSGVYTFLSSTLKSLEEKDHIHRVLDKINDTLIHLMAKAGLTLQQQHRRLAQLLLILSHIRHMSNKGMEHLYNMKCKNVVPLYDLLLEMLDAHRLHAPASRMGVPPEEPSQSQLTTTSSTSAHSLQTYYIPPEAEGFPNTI
Outline: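 Cytosol from Brown Norway rat uteri, homogenised in 10 mM Tris pH 7.4 with EDTA, glycerol and PMSF, spun at 30000×g, diluted to about 1 mg/ml protein.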

[4] = test system: type II airway epithelial cell line, A549; assay: Proliferation of A549 cells in response to 5% FCS; assay type: cell-based, human; conditions: for effect on proliferation of A549 cells, in words (FIG. 2): 5% FCS, 48 h; for A549 PIC50 / IC50: proliferation in response to 5% FCS, pIC50 of 4.00 = inactive; for IC50: Homo sapiens, A549, read-out: A549 PIC50 (converted)
[5] = 3H-estradiol displacement, cytosolic preparations of rat uterus, pIC50 of 4.00 = inactive

Q: What does the source list for `COc1cc2c(cc1O)C(=NOCc1ccc([N+](=O)[O-])cc1)C[C@@H]1[C@@H]2CC[C@]2(C)[C@@H](O)CC[C@@H]12` [CP-DM-2-11-7, 2-methoxy-6-(4-nitrobenzyloxy)iminoestradiol]?
A: reduction of bFGF (300 pM) induced proliferation [1]: 75±14%; HASM - GM-CSF [2]: 45 ± 8*; reduction of GM-CSF production, in words (FIG. 7) ([2]; interleukin-1α 1 ng/ml): reduced GM-CSF production to greater extent than 2MEO; displacement of ^3H-Estradiol, in words [3]: little or no detectable displacement; ER affinity (pIC50 ^3H-E2 displacement) [3]: <5.0; effect on proliferation of A549 cells, in words (FIG. 2) ([4]; concentrations below 3 μM): no detectable effect; A549 PIC50 [4]: 4.89

Q: For `COc1cc2c(cc1O)/C(=N/OCc1ccc(SC(F)(F)F)cc1)C[C@@H]1[C@@H]2CC[C@]2(C)[C@@H](O)CC[C@@H]12` [CP-DM-4-65, 2-methoxy-6-(4-trifluoromethylthiobenzyloxy)iminoestradiol], which “HASM - GM-CSF” value [2] is on record?
A: 28 ± 31

Q: And the IC50 [3, 5]?
A: 0.646 µM

Q: And the IC50 [4]?
A: 3.16 µM

Q: Which results are given for `C[C@]12CC[C@@H]3c4ccc(O)cc4CC[C@H]3[C@@H]1CC/C2=N\OCc1cccc([N+](=O)[O-])c1` [CP-DM-3-102, estrone-17-(3-nitrobenzyl)oxime]?
A: IC50 [3, 5]: 2.4 µM; IC50 [4]: 12.6 µM

Q: With `COc1cc2c(cc1O)C(=NOCc1ccc([N+](=O)[O-])cc1)C[C@@H]1[C@@H]2CC[C@]2(C)C(=NO)CC[C@@H]12` [CP-DM-3-91, 2-methoxy-6-(4-nitrobenzyloxy)iminoestrone-17-oxime] as the compound, how does the “reduction of bFGF (300 pM) induced proliferation” value [1] read?
A: 93±4%

Q: What about the “HASM - GM-CSF” value [2] of the same compound?
A: 43 ± 11*

Q: What about the “ER-RLB pIC50” value [3, 5] of the same compound?
A: 4.26

Q: What about the “displacement of ^3H-Estradiol, in words” value [3] of the same compound?
A: little or no detectable displacement

Q: What about the “ER affinity (pIC50 ^3H-E2 displacement)” value [3] of the same compound?
A: <5.0

Q: And the “A549 PIC50” value [4]?
A: 4.99

Q: For `COc1cc2c(cc1O)/C(=N/OCc1cc(F)cc(F)c1)C[C@@H]1[C@@H]2CC[C@]2(C)[C@@H](O)CC[C@@H]12` [CP-DM-4-35, 6-(3,5-difluorobenzyloxy)imino-2-methoxyestradiol], which IC50 [3, 5] is on record?
A: 5.25 µM

Q: What about the IC50 [4] of the same compound?
A: 3.16 µM

Q: What does the source list for `COc1cc2c(cc1O)CC[C@@H]1[C@@H]2CC[C@]2(C)[C@@H](O)CC[C@@H]12` [2-methoxyestradiol, reference compound]?
A: reduction of bFGF (300 pM) induced proliferation [1]: 87±6%; HASM - GM-CSF [2]: 29 ± 10*; ER affinity (pIC50 ^3H-E2 displacement) [3]: 6.8; effect on proliferation of A549 cells, in words (FIG. 2) ([4]; concentration not given): effective inhibitor; A549 PIC50 [4]: 6.00

Reference: patent US20070275935A1, “Estratriene Derivatives” (priority 2003, published 2007)
